Reference: US8993595B2, “Macrocyclic serine protease inhibitors” (priority 2009, dated 2015)

Key:
human CYP450 1A2 = biological target: T1, human CYP450 1A2 (Homo sapiens, UniProt P05177); assay: CYP450 inhibition assay, 1A2; type: in vitro ADME
T1 construct: purchased BD Bioscience
Procedure: (§1) Compound 52 was incubated with human CYP450 cDNA-expressed isoenzymes according to the protocol (BD Bioscience). For CYP2C9, a luminogenic substrate was used with the P450-Glo™ kit. In addition, the effect of the compound on CYP2C9-mediated diclofenac metabolism was measured by LC-UV. The potential inhibitory effect of the compound on human UGT1A1 was examined using human liver microsomes and bilirubin as substrate. The metabolites (mono- and di-glucuronidated bilirubin) were measured by LC-UV.

monkeys = conditions: oral doses up to 250 mg/kg
Procedure: (§2) Daily oral doses of compound 52 (up to 250 mg/kg/day) in PEG 400 were administered to both mice and monkeys for 28 consecutive days. Toxicity was evaluated based on mortality, clinical observations, body weights, food consumption, ophthalmological examination, hematology and serum chemistry, organ weights, gross and microscopic examinations. ECG, coagulation and urinalysis were also performed in the monkey study.

mice = conditions: mouse, in vivo
Procedure: as §2

[1] = biological target: T2, HCV NS3-4A Protease Genotype 1b (Hepatitis C virus genotype 1b, UniProt Q9WMX2); assay: HCV protease assay, recombinant NS3-4A genotype 1b; type: biochemical; conditions: mean ± SD, 3 experiments
T2 construct: recombinant HCV NS3-4A proteases
T2 sequence (Q9WMX2 1658-1711): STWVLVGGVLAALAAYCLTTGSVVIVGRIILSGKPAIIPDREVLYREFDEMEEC
T2 sequence (Q9WMX2 1027-1657): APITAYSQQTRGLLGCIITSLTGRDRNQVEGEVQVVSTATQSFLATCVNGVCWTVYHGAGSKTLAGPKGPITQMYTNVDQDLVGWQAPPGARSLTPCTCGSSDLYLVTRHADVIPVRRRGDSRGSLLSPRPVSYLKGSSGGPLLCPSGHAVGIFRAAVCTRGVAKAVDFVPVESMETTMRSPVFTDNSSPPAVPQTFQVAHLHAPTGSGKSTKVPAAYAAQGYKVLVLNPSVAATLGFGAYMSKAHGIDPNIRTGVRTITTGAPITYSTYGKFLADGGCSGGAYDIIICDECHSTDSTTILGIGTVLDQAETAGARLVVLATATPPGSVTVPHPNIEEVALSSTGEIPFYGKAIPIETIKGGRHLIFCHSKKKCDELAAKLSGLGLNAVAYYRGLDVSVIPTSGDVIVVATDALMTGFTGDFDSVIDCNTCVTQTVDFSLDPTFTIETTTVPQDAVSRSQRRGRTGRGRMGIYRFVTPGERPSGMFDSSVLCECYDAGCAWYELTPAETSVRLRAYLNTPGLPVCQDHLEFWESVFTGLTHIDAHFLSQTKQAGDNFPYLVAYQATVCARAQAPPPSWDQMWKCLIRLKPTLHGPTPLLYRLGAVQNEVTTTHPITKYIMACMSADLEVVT
Procedure: The compounds were tested at a variety of concentrations in assay buffer containing a final DMSO concentration of 5%. Reactions were allowed to proceed for 60 min at room temperature and fluorescence measurements were recorded with a Tecan Infinity Spectrofluorimeter. The IC50 values were determined from the percent inhibition versus concentration data using a sigmoidal non-linear regression analysis based on four parameters with Tecan Magellan software.
Compound 52 was tested against genotypes 1a, 1b, 2a, 3a, and 4a of recombinant HCV NS3-4A proteases, along with other cellular proteases.

human CYP450 2B6 = biological target: T3, human CYP450 2B6 (Homo sapiens, UniProt P20813); assay: CYP450 inhibition assay, 2B6; type: in vitro ADME
T3 construct: purchased BD Bioscience
T3 sequence (P20813 whole entry): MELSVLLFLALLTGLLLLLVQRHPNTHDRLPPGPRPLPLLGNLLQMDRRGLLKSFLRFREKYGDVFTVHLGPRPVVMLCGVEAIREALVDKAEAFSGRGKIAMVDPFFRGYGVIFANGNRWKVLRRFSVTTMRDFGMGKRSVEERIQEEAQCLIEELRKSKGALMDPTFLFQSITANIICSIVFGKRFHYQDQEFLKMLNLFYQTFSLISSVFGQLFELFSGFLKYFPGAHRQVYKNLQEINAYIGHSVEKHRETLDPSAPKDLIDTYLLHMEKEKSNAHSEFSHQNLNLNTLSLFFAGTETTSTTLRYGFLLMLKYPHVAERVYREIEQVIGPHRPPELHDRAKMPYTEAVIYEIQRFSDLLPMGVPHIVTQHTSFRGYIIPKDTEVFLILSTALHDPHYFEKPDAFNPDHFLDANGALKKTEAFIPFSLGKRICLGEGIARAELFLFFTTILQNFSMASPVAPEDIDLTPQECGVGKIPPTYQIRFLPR
Procedure: as §1

human CYP450 2C9 = biological target: T4, human CYP450 2C9 (Homo sapiens, UniProt P11712); assay: CYP450 inhibition assay, 2C9; type: in vitro ADME
T4 construct: purchased BD Bioscience
T4 sequence (P11712 whole entry): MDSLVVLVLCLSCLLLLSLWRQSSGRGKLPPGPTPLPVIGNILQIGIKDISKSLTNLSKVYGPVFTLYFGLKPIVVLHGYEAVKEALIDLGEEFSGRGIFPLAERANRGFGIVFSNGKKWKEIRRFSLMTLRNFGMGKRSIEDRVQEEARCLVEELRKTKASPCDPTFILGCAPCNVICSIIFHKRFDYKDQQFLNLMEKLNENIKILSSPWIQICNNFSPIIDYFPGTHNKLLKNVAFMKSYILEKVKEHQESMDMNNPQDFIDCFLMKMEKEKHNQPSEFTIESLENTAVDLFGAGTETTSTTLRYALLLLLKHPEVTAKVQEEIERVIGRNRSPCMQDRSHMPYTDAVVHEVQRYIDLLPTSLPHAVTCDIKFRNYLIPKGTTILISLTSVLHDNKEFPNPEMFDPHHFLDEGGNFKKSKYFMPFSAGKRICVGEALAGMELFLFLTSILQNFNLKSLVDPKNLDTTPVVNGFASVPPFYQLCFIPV
Procedure: as §1

[2] = system: genotype 1b replicon cells; assay: Selection of drug-resistant genotype 1b replicon cell lines; type: cell-based, HCV; conditions: all eight selected genotype 1b cell lines
Procedure: (§3) Replicon cells (genotype 1a or 1b) were treated with various concentrations of compound 52 in the presence of G418. Treatment-emergent genotypic changes were identified by population sequencing of NS3 (both protease and helicase regions). The activity of compound 52 and other compounds was evaluated by NS5A western blot after selection or luciferase assay during and after selection.
(§4) Eight drug-resistance replicon cell lines were created by long-term culture of genotype 1b replicon cells with 10 or 25 nM of compound 52. NS3 (AAs 1-631) was sequenced at each passage.

in vitro [3] = type: cell-based; conditions: human; GS4.1 cells, Cell Titer 96 AQueous One Solution
Procedure: For cytotoxicity evaluation, GS4.1 cells were treated with compounds as described above and cellular viability was monitored using the Cell Titer 96 AQueous One Solution Cell Proliferation Assay (Promega). CC50 values were determined from the % cytotoxicity versus concentration data with Tecan Magellan software as described above.

[4] = system: central nervous, renal, and gastrointestinal systems of mice; parameters: species or system CD-1 mouse; conditions: mouse, in vivo
Source text: (§5) One in vitro GLP safety pharmacology study evaluated the effects of compound 52 on hERG channel currents in voltage-clamped human embryonic kidney cells (HEK293) stably expressing the human ether-à-go-go-related gene (hERG) channel. Four in vivo GLP safety pharmacology studies evaluated the potential effects of the compound on the cardiovascular and respiratory systems in the cynomolgus monkey and on the central nervous, renal, and gastrointestinal systems in the CD-1 mouse at single oral doses up to 250 mg/kg of compound 52.

hERG channel = biological target: T5, hERG channel (Homo sapiens, UniProt Q12809); assay: hERG channel currents in voltage-clamped HEK293 cells; type: cell-based
T5 construct: expressed in transfected cells; host or cells: HEK293
T5 sequence (Q12809 whole entry): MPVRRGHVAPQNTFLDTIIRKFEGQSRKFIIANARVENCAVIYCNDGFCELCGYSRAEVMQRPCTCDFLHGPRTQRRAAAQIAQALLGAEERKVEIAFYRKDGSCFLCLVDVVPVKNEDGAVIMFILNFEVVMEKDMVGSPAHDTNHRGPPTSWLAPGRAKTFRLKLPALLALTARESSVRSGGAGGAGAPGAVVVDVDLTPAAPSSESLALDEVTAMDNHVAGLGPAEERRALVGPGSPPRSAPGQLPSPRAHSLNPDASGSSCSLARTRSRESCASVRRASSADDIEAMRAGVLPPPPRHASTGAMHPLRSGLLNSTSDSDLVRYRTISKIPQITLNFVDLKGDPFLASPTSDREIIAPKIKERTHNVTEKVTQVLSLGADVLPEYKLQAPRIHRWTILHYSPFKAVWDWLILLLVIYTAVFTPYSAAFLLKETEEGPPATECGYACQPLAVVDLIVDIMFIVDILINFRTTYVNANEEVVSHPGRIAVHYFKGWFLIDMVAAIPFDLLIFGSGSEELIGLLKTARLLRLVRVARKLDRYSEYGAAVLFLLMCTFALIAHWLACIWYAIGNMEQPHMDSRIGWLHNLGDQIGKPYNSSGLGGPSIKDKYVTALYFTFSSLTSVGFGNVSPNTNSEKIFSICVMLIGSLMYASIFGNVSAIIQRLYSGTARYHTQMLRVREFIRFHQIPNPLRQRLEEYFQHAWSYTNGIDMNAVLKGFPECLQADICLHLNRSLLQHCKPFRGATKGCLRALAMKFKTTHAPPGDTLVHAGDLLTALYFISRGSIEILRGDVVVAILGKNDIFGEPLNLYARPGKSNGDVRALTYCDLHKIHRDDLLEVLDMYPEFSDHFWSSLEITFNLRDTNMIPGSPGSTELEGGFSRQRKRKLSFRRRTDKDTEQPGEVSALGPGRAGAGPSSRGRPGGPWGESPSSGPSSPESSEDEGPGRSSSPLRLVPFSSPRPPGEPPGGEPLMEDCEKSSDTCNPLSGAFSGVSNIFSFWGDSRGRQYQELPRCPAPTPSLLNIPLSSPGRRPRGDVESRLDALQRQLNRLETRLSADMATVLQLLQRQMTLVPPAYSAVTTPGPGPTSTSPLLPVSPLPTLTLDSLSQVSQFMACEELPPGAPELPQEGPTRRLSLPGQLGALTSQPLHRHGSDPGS
Source text: as §5

human CYP450 3A4 = biological target: T6, human CYP450 3A4 (Homo sapiens, UniProt P08684); assay: CYP450 inhibition assay, 3A4; type: in vitro ADME
T6 construct: purchased BD Bioscience
T6 sequence (P08684 whole entry): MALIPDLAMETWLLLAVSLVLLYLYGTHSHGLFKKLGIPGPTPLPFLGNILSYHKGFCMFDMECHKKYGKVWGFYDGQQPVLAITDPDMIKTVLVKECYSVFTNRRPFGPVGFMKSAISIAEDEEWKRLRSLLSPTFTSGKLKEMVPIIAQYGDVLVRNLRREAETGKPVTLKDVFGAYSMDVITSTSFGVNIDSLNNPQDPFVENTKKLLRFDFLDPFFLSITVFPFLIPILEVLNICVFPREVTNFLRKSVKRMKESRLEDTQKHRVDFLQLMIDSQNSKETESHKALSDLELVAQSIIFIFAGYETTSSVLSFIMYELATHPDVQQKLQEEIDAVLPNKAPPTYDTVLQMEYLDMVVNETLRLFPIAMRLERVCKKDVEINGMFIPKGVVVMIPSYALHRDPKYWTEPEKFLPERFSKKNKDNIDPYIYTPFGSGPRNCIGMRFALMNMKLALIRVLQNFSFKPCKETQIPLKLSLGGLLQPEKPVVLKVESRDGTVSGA
Procedure: as §1

in vitro [5] = conditions: human, Caco-2, pH 7.4
Procedure: Caco-2 cells were grown to confluence on collagen-coated, microporous, polycarbonate membranes in 12-well Costar Transwell plates. 5 μM of compound 52 was prepared in Hanks balanced salt solution containing 10 mM HEPES and 15 mM glucose at a pH of 7.4. Cell monolayers were dosed on the apical side (A-to-B) or basolateral side (B-to-A). Samples were taken from the receiver chambers at 120 min and quantified by LC-MS/MS.

[6] = mouse plasma
1b replicon = assay: HCV replicon luciferase assay, genotype 1b; type: cell-based
Procedure: (§6) Compound 52 was tested against genotypes 1a, 1b, and 2a in an HCV replicon assay as described in Example 2. Replicon cells (genotype 1a or 1b) were seeded onto 96-well plates, cultured for three days in the presence of the compound, and subject to a luciferase assay.
Drug solutions were made up freshly in Huh-7 media as 2× stocks. Ten additional 5-fold dilutions were prepared from these stocks in DMEM without G418. […] Cells were then incubated at 37° C./5% CO2. […] For this, media was removed from the plates via gentle tapping. Fifty microliters of ONE-glo luciferase assay reagent was added to each well. […] The EC50 values were calculated from dose response curves from the resulting best-fit equations determined by Microsoft Excel and XLfit 4.1 software.

[7] = system: Zluc cell line (genotype 1b replicon with luciferase, unselected); assay: Extent of resistance after selection, luciferase assay, Zluc; type: cell-based, HCV; conditions: selecting conc. 0 nM, EC50 resistant / EC50 wild-type
Procedure: as §3

[8] = system: ZlucA cell line (genotype 1b replicon selected with 10 nM compound 52, D168V); assay: Extent of resistance after selection, luciferase assay, ZlucA; type: cell-based, HCV; conditions: selecting conc. 10 nM, EC50 resistant / EC50 wild-type
Procedure: as §3, §4

1a replicon = assay: HCV replicon luciferase assay, genotype 1a; type: cell-based
Procedure: as §6

[9] = Hepatitis C virus, 72 h, three days, luciferase assay

T1 sequence (P05177 whole entry): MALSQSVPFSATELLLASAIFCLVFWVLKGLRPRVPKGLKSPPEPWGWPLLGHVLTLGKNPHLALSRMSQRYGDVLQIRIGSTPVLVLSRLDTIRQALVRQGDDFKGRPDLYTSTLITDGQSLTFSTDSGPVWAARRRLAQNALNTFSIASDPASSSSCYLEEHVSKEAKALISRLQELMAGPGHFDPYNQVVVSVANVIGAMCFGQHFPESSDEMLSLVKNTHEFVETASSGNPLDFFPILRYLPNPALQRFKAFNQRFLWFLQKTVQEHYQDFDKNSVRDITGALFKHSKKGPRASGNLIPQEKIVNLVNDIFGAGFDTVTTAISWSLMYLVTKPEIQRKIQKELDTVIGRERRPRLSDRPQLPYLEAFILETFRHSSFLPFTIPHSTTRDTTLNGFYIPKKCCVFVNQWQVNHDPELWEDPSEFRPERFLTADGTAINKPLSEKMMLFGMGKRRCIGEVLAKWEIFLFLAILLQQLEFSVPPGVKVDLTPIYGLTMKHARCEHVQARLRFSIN

COc1ccc2c(O[C@H]3CCN4C(=O)N(C)CCCC/C=C\[C@@H]5C[C@@]5(C(=O)NS(=O)(=O)C5(C)CC5)NC(=O)[C@@H]4C3)cc(-c3nc(C(F)(F)F)cs3)nc2c1C [Compound 52, 1-methyl-cyclopropanesulfonic acid{(Z)-(1S,4R,6S,18S)-18-[7-methoxy-8-methyl-2-(4-trifluoromethyl-thiazol-2-yl)-quinolin-4-yloxy]-13-methyl-2,14-dioxo-3,13,15-triaza-tricyclo[13.4.0.0*4,6*]nonadec-7-ene-4-carbonyl}amide]
IC50 (human CYP450 1A2): ≥ 10 µM | tolerability in 4-week GLP toxicology study (monkeys): well tolerated | tolerability in 4-week GLP toxicology study (mice): well tolerated | IC50 [1]: 0.0012 ± 0.0001 µM | IC50 (human CYP450 2B6): ≥ 10 µM | IC50 (human CYP450 2C9): ≥ 10 µM | fold-change values (resistance) [2]: no less than 250 | CC50 (in vitro [3]): 10 to 75 µM | effects on the central nervous system, renal function, or gastrointestinal motility [4]: no effects | effect on cardiac hERG potassium channel current (hERG channel): did not affect | IC50 (human CYP450 3A4): ≥ 10 µM | Papp (in vitro [5]): 1.8 ×10⁻⁶ cm/s | efflux ratio (in vitro [5]): 2.7 | protein bound in plasma [6]: 99.2% | Selectivity Index (1b replicon): 50,400 | EC50 (1b replicon; [9]): 0.0005 ± 0.0001 µM | Fold-Change [7]: 1 | Fold-Change [8]: 250 ± 66 | Selectivity Index (1a replicon): >22,647 | EC50 (1a replicon; [9]): 0.0034 ± 0.0011 µM
